# Test results as given in US8936806B2, “Periostin induces proliferation of cardiomyocytes and promotes cardiac regeneration” (Children's Medical Center Corporation, priority 2007, dated 2015).
# “Also recorded” adds a separate entry of the source. Read-outs that look alike come from different tables or passages of the source.
# B1: variant consisting of the 4 fas1 domains: periostin derivative consisting of 4 fas1 domains, purified from bacteria, molecular weight of 75 kDa (protein)
# chain: NNHYDKILAHSRIRGRDQGPNVCALQQILGTKKKYFSTCKNWYKKSICGQKTTVLYECCPGYMRMEGMKGCPAVLPIDHVYGTLGIVGATTTQRYSDASKLREEIEGKGSFTYFAPSNEAWDNLDSDIRRGLESNVNVELLNALHSHMINKRMLTKDLKNGMIIPSMYNNLGLFINHYPNGVVTVNCARIIHGNQIATNGVVHVIDRVLTQIGTSIQDFIEAEDDLSSFRAAAITSDILEALGRDGHFTLFAPTNEAFEKLPRGVLERFMGDKVASEALMKYHILNTLQCSESIMGGAVFETLEGNTIEIGCDGDSITVNGIKMVNKKDIVTNNGVIHLIDQVLIPDSAKQVIELAGKQQTTFTDLVAQLGLASALRPDGEYTLLAPVNNAFSDDTLSMVQRLLKLILQNHILKVKVGLNELYNGQILETIGGKQLRVFVYRTAVCIENSCMEKGSKQGRNGAIHIFREIIKPAEKSLHEKLKQDKRFSTFLSLLEAADLKELLTQPGDWTLFVPTNDAFKGMTSEEKEILIRDKNALQNIILYHLTPGVFIGKGFEPGVTNILKTTQGSKIFLKEVNDTLLVNELKSKESDIMTTNGVIHVVDKLLYPADTPVGNDQLLEILNKLIKYIQIKFVRGSTFKEIPVTVY
# B2: boiled periostin: boiled periostin used in control experiments to rule out a non-protein impurity (protein, UniProt Q15063 22-836, looked up)
# Periostin: NNHYDKILAHSRIRGRDQGPNVCALQQILGTKKKYFSTCKNWYKKSICGQKTTVLYECCPGYMRMEGMKGCPAVLPIDHVYGTLGIVGATTTQRYSDASKLREEIEGKGSFTYFAPSNEAWDNLDSDIRRGLESNVNVELLNALHSHMINKRMLTKDLKNGMIIPSMYNNLGLFINHYPNGVVTVNCARIIHGNQIATNGVVHVIDRVLTQIGTSIQDFIEAEDDLSSFRAAAITSDILEALGRDGHFTLFAPTNEAFEKLPRGVLERIMGDKVASEALMKYHILNTLQCSESIMGGAVFETLEGNTIEIGCDGDSITVNGIKMVNKKDIVTNNGVIHLIDQVLIPDSAKQVIELAGKQQTTFTDLVAQLGLASALRPDGEYTLLAPVNNAFSDDTLSMDQRLLKLILQNHILKVKVGLNELYNGQILETIGGKQLRVFVYRTAVCIENSCMEKGSKQGRNGAIHIFREIIKPAEKSLHEKLKQDKRFSTFLSLLEAADLKELLTQPGDWTLFVPTNDAFKGMTSEEKEILIRDKNALQNIILYHLTPGVFIGKGFEPGVTNILKTTQGSKIFLKEVNDTLLVNELKSKESDIMTTNGVIHVVDKLLYPADTPVGNDQLLEILNKLIKYIQIKFVRGSTFKEIPVTVYTTKIITKVVEPKIKVIEGSLQPIIKTEGPTLTKVKIEGEPEFRLIKEGETITEVIHGEPIIKKYTKIIDGVPVEITEKETREERIITGPEIKYTRISTGGGETEETLKKLLQEEVTKVTKFIEGGDGHLFEDEEIKRLLQGDTPVRKLQANKKVQGSRRRLREGRSQ
# modifications: heat-denatured
# notes: boiled periostin used in control experiments to rule out a non-protein impurity
# Assays:
# [1] = system: primary adult rat ventricular cardiomyocytes; assay: DNA synthesis (BrdU uptake, immunofluorescence) in primary adult rat ventricular cardiomyocytes; format: cell-based; parameters: inhibition of periostin-stimulated DNA synthesis by integrin antibodies: dose or concentration left out as unconfirmed; details: for inhibition of periostin-induced DNA synthesis / cell-cycle reentry by kinase inhibitors / inhibition of neuregulin-induced cell-cycle reentry: PD98059 1 mM; for inhibition of periostin-induced DNA synthesis / cell-cycle reentry by kinase inhibitors: U0126 10 mM, LY294002 10 mM, SH-6 10 mM, Akt1/2 inhibitor 1 mM [sic]; for inhibition of neuregulin-induced cell-cycle reentry: U0126 10 mM as printed
# From the text: Primary neonatal rat ventricular cardiomyocytes were isolated using the Neomyts kit (Cellutron, Highland Park, N.J.), seeded at a density of 10^5 cells/cm^2 onto gelatin-coated cover slips, stimulated for 3 days, and labeled with BrdU for the terminal 2 days. Primary adult ventricular cardiomyocytes were isolated from male (300 gm) Wistar rats (Charles River Laboratories) and maintained as described (Engel, F. B. et al. p38 MAP kinase inhibition enables proliferation of adult mammalian cardiomyocytes. Genes Dev 19, 1175-87 (2005)). Adult cardiomyocytes were stimulated daily for 9 days and labeled with 30 μM BrdU for the terminal 3 days. Cardiomyocytes were stimulated with periostin (500 ng/mL) and FGF (100 ng/mL). […] The vehicle used to dissolve factors or chemicals was added to unstimulated samples, which were then processed together with the test samples. DNA-synthesis was analyzed by visualization of BrdU uptake and cytokinesis was determined by detection of the cleavage furrow and the midbody with an antibody against aurora B kinase as described (Engel, F. B. et al. p38 MAP kinase inhibition enables proliferation of adult mammalian cardiomyocytes. Genes Dev 19, 1175-87 (2005)). Signals were visualized with secondary antibodies conjugated to Alexa 488, Alexa 546, Alexa 594, and Alexa 647 (Invitrogen). […] For image acquisition, the value for γ was set at 1 and the lookup table settings were linear. Primary adult rat ventricular cardiomyocytes were grown on gridded cover slips (Electron Microscopy Services, Ft. Washington, Pa.) and imaged in phase contrast at 10× magnification. Cardiomyocytes were transduced with an adenovirus leading to nuclear expression of histone2B-GFP (Shi, Q. & King, R. W. Nature 437, 1038-42 (2005)) under control of the chicken troponin T promoter ([…]. Am J Physiol Cell Physiol 286, […]-64 (2004)). Nuclei were visualized at 10× magnification with a mercury-arc lamp dimmed to 1.5% with a neutral density filter. […] Images of BrdU-positive cardiomyocytes were matched with the corresponding images from before stimulation. For quantification, differentiated cardiomyocytes were defined as striated rod-shaped structures with length/width ratio>1.5.
# [2] = system: primary neonatal rat ventricular cardiomyocytes; assay: Cardiomyocyte proliferation by cell count (hemocytometer); format: cell-based; details: for inhibition of periostin-stimulated proliferation by ERK and PI3-kinase inhibitors: U0126 10 μM, PD98059 1 μM, LY294002 10 μM, Wortmannin 0.1 μM; for inhibition of periostin-stimulated proliferation by integrin blockers: cRGD 10 μM, antibodies 10 μg/mL
# Experimental: To determine cardiomyocyte proliferation, primary neonatal rat ventricular cardiomyocytes were quantified by counting with a hemocytometer after 3 days and 6 days of stimulation. To determine cardiomyocyte survival, primary neonatal rat ventricular cardiomyocytes were pre-treated with 500 ng/mL periostin or buffer for 30 min and then exposed to 0.5 μM doxycycline or 100 ng/mL TNFα for 24 hr and quantified by counting. Corresponding samples were stained with an antibody directed against tropomyosin as a cardiomyocyte marker to control for the percentage of differentiated cardiomyocytes. Apoptotic cardiomyocyte nuclei were determined after 24 hr with the In situ Cell Death Detection Kit (Roche, Indianapolis, Ind.) in combination with staining for troponin I.
# [3] = system: primary neonatal rat ventricular cardiomyocytes; assay: DNA synthesis, mitosis and cytokinesis in primary neonatal rat ventricular cardiomyocytes; format: cell-based; details: for inhibition of periostin-stimulated DNA synthesis by integrin blockers: cRGD 10 μM, antibodies 10 μg/mL; for induction of cardiomyocyte DNA synthesis: FIG. 2d, 2e
# From the text: Primary neonatal rat ventricular cardiomyocytes were isolated using the Neomyts kit (Cellutron, Highland Park, N.J.), seeded at a density of 10^5 cells/cm^2 onto gelatin-coated cover slips, stimulated for 3 days, and labeled with BrdU for the terminal 2 days. Primary adult ventricular cardiomyocytes were isolated from male (300 gm) Wistar rats (Charles River Laboratories) and maintained as described (Engel, F. B. et al. p38 MAP kinase inhibition enables proliferation of adult mammalian cardiomyocytes. Genes Dev 19, 1175-87 (2005)). Adult cardiomyocytes were stimulated daily for 9 days and labeled with 30 μM BrdU for the terminal 3 days. Cardiomyocytes were stimulated with periostin (500 ng/mL) and FGF (100 ng/mL). Inhibiting antibodies were added at a concentration of 10 μg/mL, cRGD at 10 μM, U0126 at 10 μM, PD98059 at 1 μM, LY294002 at 10 μM, and Wortmannin at 0.1 μM 30 min prior to stimulation. The vehicle used to dissolve factors or chemicals was added to unstimulated samples, which were then processed together with the test samples.
# DNA-synthesis was analyzed by visualization of BrdU uptake and cytokinesis was determined by detection of the cleavage furrow and the midbody with an antibody against aurora B kinase as described (Engel, F. B. et al. p38 MAP kinase inhibition enables proliferation of adult mammalian cardiomyocytes. Genes Dev 19, 1175-87 (2005)). Signals were visualized with secondary antibodies conjugated to Alexa 488, Alexa 546, Alexa 594, and Alexa 647 (Invitrogen). Nuclei were visualized with 4′,6′-diamidino-2-phenylindole (DAPI, Invitrogen). For image acquisition, the value for γ was set at 1 and the lookup table settings were linear.
# [4] = system: Adult male Sprague-Dawley rats; assay: Cardiomyocyte cell cycle activity in vivo after intramyocardial injection; parameters: species or system rat; LVFW CM nuclei: unit not given here
# Experimental: Experiments were performed in accordance with institutional guidelines of Massachusetts General Hospital. Injections and analyses were performed in a blinded fashion. Adult male Sprague-Dawley rats (300 gm, Charles River Laboratories) underwent thoracotomy and received intramyocardial injections of 50 μg of recombinant human periostin consisting of the fas1-4 domains, 50 μg of rat fibronectin, or 100 μL of 100 mM sodium acetate as a control (5 rats per group). The survival rate for this procedure was 80%. Injected periostin was confirmed by detection with a polyclonal antibody directed against human periostin (Abcam) and visualized by immunofluorescence microscopy. Intraperitoneal injections of BrdU (70 μmol/kg body weight) with a tissue half life of 2 hr were given every 48 hr, and rats were sacrificed after the third injection. Horizontal cryosections of 14 μm thickness spaced at 1 mm intervals were analyzed by laser scanning immunofluorescence microscopy. BrdU-positive cardiomyocyte nuclei and cytokineses were quantified on 16-20 sections per heart. Fibrosis and cardiomyocyte cross-sectional area were determined on 5 Masson's Trichrome-stained sections at the level of the injection at 40× magnification and quantified using the Metamorph software package (Molecular Devices Corp., Downingtown, Pa.).
# [5] = U0126 10 μM, PD98059 1 μM, LY294002 10 μM, Wortmannin 0.1 μM
# [6] = 1 week after intracardiac injection
molecule,measurement,setting,value
O.O=C(O)C(F)(F)F.O=c1[nH]c2ccccc2n1C1CCN(Cc2ccc(-c3nc4cc5[nH]cnc5cc4nc3-c3ccccc3)cc2)CC1 [Akt1/2 inhibitor],inhibition of periostin-induced DNA synthesis / cell-cycle reentry by kinase inhibitors,[1]; differentiated cardiomyocytes,reduced
COc1cccc(-c2cc(=O)c3ccccc3o2)c1N [PD98059],inhibition of periostin-stimulated proliferation by ERK and PI3-kinase inhibitors,[2],inhibited
same,inhibition of periostin-stimulated DNA synthesis by ERK and PI3-kinase inhibitors,[3]; [5],inhibited only by blocking Akt activation
same,inhibition of periostin-stimulated cytokinesis by ERK and PI3-kinase inhibitors,[3]; [5],inhibited
same,inhibition of neuregulin-induced cell-cycle reentry,[1]; differentiated cardiomyocytes,inhibited
same,inhibition of periostin-induced DNA synthesis / cell-cycle reentry by kinase inhibitors,[1]; differentiated cardiomyocytes,did not reduce; also recorded: did not block
C[S+]([O-])c1ccc(-c2nc(-c3ccncc3)c(-c3ccc(F)cc3)[nH]2)cc1 (stereo not shown) [SB203580],effect on periostin-induced cardiomyocyte DNA synthesis when added,"[1]; FGF 100 ng/ml, SB203580 5 mM or 10 mM as printed",no additional effect
N#CC(=C(/N)Sc1ccccc1N)/C(C#N)=C(\N)Sc1ccccc1N [U0126],inhibition of periostin-stimulated proliferation by ERK and PI3-kinase inhibitors,[2],inhibited
same,inhibition of periostin-stimulated DNA synthesis by ERK and PI3-kinase inhibitors,[3],inhibited only by blocking Akt activation
same,inhibition of periostin-stimulated cytokinesis by ERK and PI3-kinase inhibitors,[3],inhibited
same,inhibition of neuregulin-induced cell-cycle reentry,[1]; differentiated cardiomyocytes,inhibited
same,inhibition of periostin-induced DNA synthesis / cell-cycle reentry by kinase inhibitors,[1]; differentiated cardiomyocytes,did not reduce; also recorded: did not block
Cyclic Arg-Gly-Asp [cRGD],inhibition of periostin-stimulated proliferation by integrin blockers,[2],blocked
same,inhibition of periostin-stimulated DNA synthesis by integrin blockers,[3],inhibited; also recorded: blocked
Fibronectin: Rat fibronectin from Biomedical Technologies; extracellular matrix component [reference compound],induction of cardiomyocyte DNA synthesis,[3],did not induce DNA synthesis
same,LVFW BrdU-positive CM nuclei,[4]; [6],0.002 ± 0.0004%
same,LVFW CM nuclei,[4]; [6],10.7 ± 0.4 10^$$ per heart
same,LVFW BrdU-positive CM nuclei,"[4]; 1 week after intracardiac injection, 3 BrdU injections",273.6 ± 42.8 per heart
same,LVFW myocardial volume,"[4]; 1 week after intracardiac injection, 50 μg periostin (fas1-4 domains) or 50 μg rat fibronectin",224 ± 6 mm^3
same,cardiomyocyte DNA synthesis in vivo,[4]; FIG. 4c,did not increase
same,cardiomyocyte cytokinesis in vivo,[4]; FIG. 4d,did not increase
SH-6,inhibition of periostin-induced DNA synthesis / cell-cycle reentry by kinase inhibitors,[1]; differentiated cardiomyocytes,reduced
"collagen: type 1 rat collagen, extracellular matrix component known to activate integrins",induction of cardiomyocyte DNA synthesis,[3],did not induce DNA synthesis
"integrin αV antibody: integrin αV (RMV-7) blocking antibody, BioLegend",inhibition of periostin-stimulated proliferation by integrin blockers,[2],inhibited
same,inhibition of periostin-stimulated DNA synthesis by integrin blockers,[3],inhibited
same,inhibition of periostin-stimulated DNA synthesis by integrin antibodies,[1]; differentiated cardiomyocytes,inhibited
B1,induction of cardiomyocyte DNA synthesis,[3],stimulated DNA synthesis as effectively as FGF
B2,activation of the cardiomyocyte cell cycle,[3]; control for non-protein impurity,did not activate
